Assay results: the NIST ThermoML archive (doi:10.1016/j.tca.2015.02.020)

Assay: molar heat capacity at constant pressure; xn = mol fraction of the nth substance listed
Conditions: 101 kPa, Small sample (50 mg) DSC

NCCO [2-aminoethan-1-ol] + O
Conditions	molar heat capacity at constant pressure [J/K/mol]
125.88 K, Glass, x1 = 0.19	25.67
126.5 K, Glass, x1 = 0.31	30.11
126.8 K, Glass, x1 = 0.73	44.51
126.93 K, Glass, x1 = 0.73	46.98
127.09 K, Glass, x1 = 0.23	27.92
127.56 K, Glass, x1 = 0.19	25.67
127.58 K, Glass, x1 = 0.23	28.2
128.65 K, Glass, x1 = 0.31	31.05
130.53 K, Glass, x1 = 0.19	28.03
131.15 K, Glass, x1 = 0.31	31.68
131.46 K, Glass, x1 = 0.73	45.5
131.76 K, Glass, x1 = 0.73	48.96
131.91 K, Glass, x1 = 0.31	31.68
131.92 K, Glass, x1 = 0.23	29.6
132.24 K, Glass, x1 = 0.23	29.6
132.38 K, Glass, x1 = 0.19	26.72
135.04 K, Glass, x1 = 0.73	49.95
135.19 K, Glass, x1 = 0.31	32.62
135.2 K, Glass, x1 = 0.19	30.13
135.2 K, Glass, x1 = 0.23	30.71
135.66 K, Glass, x1 = 0.19	27.77
136.91 K, Glass, x1 = 0.23	31.55
136.92 K, Glass, x1 = 0.31	33.88
137.23 K, Glass, x1 = 0.73	46.98
139.88 K, Glass, x1 = 0.19	33.27
141.59 K, Glass, x1 = 0.23	34.34
141.59 K, Glass, x1 = 0.31	36.07
141.6 K, Glass, x1 = 0.73	52.42
141.75 K, Glass, x1 = 0.23	32.67
141.75 K, Glass, x1 = 0.31	34.19
141.91 K, Glass, x1 = 0.73	47.97
142.22 K, Glass, x1 = 0.19	29.34
144.56 K, Glass, x1 = 0.19	38.25
144.88 K, Glass, x1 = 0.73	53.91
145.03 K, Glass, x1 = 0.31	35.13
145.04 K, Glass, x1 = 0.23	34.06
145.51 K, Glass, x1 = 0.19	30.91
146.28 K, Glass, x1 = 0.23	39.37
146.28 K, Glass, x1 = 0.31	40.15
146.6 K, Glass, x1 = 0.73	49.95
151.3 K, Glass, x1 = 0.73	52.92
151.46 K, Glass, x1 = 0.73	56.38
151.61 K, Glass, x1 = 0.31	39.21
154.75 K, Glass, x1 = 0.73	57.86
158.65 K, Liquid, x1 = 0.19	63.66
160.38 K, Liquid, x1 = 0.23	65.61
161.96 K, Liquid, x1 = 0.19	60.52
163.35 K, Liquid, x1 = 0.19	64.19
164.78 K, Liquid, x1 = 0.31	75.91
165.07 K, Liquid, x1 = 0.23	65.61
165.08 K, Liquid, x1 = 0.31	73.71
165.25 K, Liquid, x1 = 0.19	60.78
168.06 K, Liquid, x1 = 0.19	64.45
169.79 K, Liquid, x1 = 0.23	65.61
169.79 K, Liquid, x1 = 0.31	73.4
170.12 K, Liquid, x1 = 0.73	109.3
171.22 K, Liquid, x1 = 0.73	122.65
171.38 K, Liquid, x1 = 0.23	68.96
171.38 K, Liquid, x1 = 0.31	75.59
171.85 K, Liquid, x1 = 0.19	61.57
172.77 K, Liquid, x1 = 0.19	64.97
174.5 K, Liquid, x1 = 0.23	65.61
174.5 K, Liquid, x1 = 0.31	73.4
174.52 K, Liquid, x1 = 0.73	121.66
174.68 K, Liquid, x1 = 0.23	69.52
174.68 K, Liquid, x1 = 0.31	75.59
174.83 K, Liquid, x1 = 0.73	109.3
175.15 K, Liquid, x1 = 0.19	61.83
177.48 K, Liquid, x1 = 0.19	65.23
179.21 K, Liquid, x1 = 0.23	65.89
179.21 K, Liquid, x1 = 0.31	73.4
179.55 K, Liquid, x1 = 0.73	109.79
181.12 K, Liquid, x1 = 0.73	122.15
181.28 K, Liquid, x1 = 0.23	70.36
181.28 K, Liquid, x1 = 0.31	76.22
181.75 K, Liquid, x1 = 0.19	62.35
182.19 K, Liquid, x1 = 0.19	66.02
183.93 K, Liquid, x1 = 0.23	66.17
183.93 K, Liquid, x1 = 0.31	73.71
184.27 K, Liquid, x1 = 0.73	109.79
184.43 K, Liquid, x1 = 0.73	122.15
184.58 K, Liquid, x1 = 0.31	76.22
184.59 K, Liquid, x1 = 0.23	70.64
186.92 K, Liquid, x1 = 0.19	66.54
188.65 K, Liquid, x1 = 0.23	66.73
188.65 K, Liquid, x1 = 0.31	74.02
188.98 K, Liquid, x1 = 0.73	110.28
191.04 K, Liquid, x1 = 0.73	120.18
191.19 K, Liquid, x1 = 0.31	77.16
191.2 K, Liquid, x1 = 0.23	71.48
191.64 K, Liquid, x1 = 0.19	67.07
193.38 K, Liquid, x1 = 0.23	67.57
193.38 K, Liquid, x1 = 0.31	74.65
193.72 K, Liquid, x1 = 0.73	111.27
194.5 K, Liquid, x1 = 0.31	77.47
194.51 K, Liquid, x1 = 0.23	72.04
196.37 K, Liquid, x1 = 0.19	67.85
198.1 K, Liquid, x1 = 0.23	68.13
198.1 K, Liquid, x1 = 0.31	74.97
198.44 K, Liquid, x1 = 0.73	112.26
201.09 K, Liquid, x1 = 0.19	68.9
201.13 K, Liquid, x1 = 0.23	72.59
201.13 K, Liquid, x1 = 0.31	78.73
202.83 K, Liquid, x1 = 0.23	68.96
202.84 K, Liquid, x1 = 0.31	75.28
203.18 K, Liquid, x1 = 0.73	112.76
204.44 K, Liquid, x1 = 0.23	72.87
204.44 K, Liquid, x1 = 0.31	79.36
205.82 K, Liquid, x1 = 0.19	69.95
207.56 K, Liquid, x1 = 0.23	69.8
207.56 K, Liquid, x1 = 0.31	76.22
207.9 K, Liquid, x1 = 0.73	113.75
210.55 K, Liquid, x1 = 0.19	71
211.06 K, Liquid, x1 = 0.31	79.98
211.07 K, Liquid, x1 = 0.23	73.71
212.29 K, Liquid, x1 = 0.23	70.92
212.29 K, Liquid, x1 = 0.31	77.16
212.64 K, Liquid, x1 = 0.73	114.74
214.38 K, Liquid, x1 = 0.23	74.55
214.38 K, Liquid, x1 = 0.31	80.61
215.29 K, Liquid, x1 = 0.19	72.31
217.03 K, Liquid, x1 = 0.23	72.04
217.03 K, Liquid, x1 = 0.31	78.1
217.38 K, Liquid, x1 = 0.73	115.23
220.03 K, Liquid, x1 = 0.19	73.62
221.01 K, Liquid, x1 = 0.31	81.87
221.76 K, Liquid, x1 = 0.23	73.15
221.77 K, Liquid, x1 = 0.31	79.36
222.11 K, Liquid, x1 = 0.73	115.72
224.33 K, Liquid, x1 = 0.31	82.81
224.77 K, Liquid, x1 = 0.19	74.66
226.51 K, Liquid, x1 = 0.23	74.27
226.52 K, Liquid, x1 = 0.31	80.3
226.86 K, Liquid, x1 = 0.73	116.22
229.51 K, Liquid, x1 = 0.19	75.97
230.97 K, Liquid, x1 = 0.23	80.69
230.97 K, Liquid, x1 = 0.31	84.38
231.24 K, Liquid, x1 = 0.23	75.67
231.25 K, Liquid, x1 = 0.31	81.24
231.6 K, Liquid, x1 = 0.73	116.22
234.25 K, Liquid, x1 = 0.19	77.02
234.28 K, Liquid, x1 = 0.31	85.32
234.29 K, Liquid, x1 = 0.23	81.25
235.99 K, Liquid, x1 = 0.23	76.78
236 K, Liquid, x1 = 0.31	82.81
236.34 K, Liquid, x1 = 0.73	116.71
238.99 K, Liquid, x1 = 0.19	78.07
240.72 K, Liquid, x1 = 0.23	78.18
240.73 K, Liquid, x1 = 0.31	84.06
240.93 K, Liquid, x1 = 0.23	82.93
240.93 K, Liquid, x1 = 0.31	87.2
241.08 K, Liquid, x1 = 0.73	118.2
241.4 K, Liquid, x1 = 0.19	78.86
243.73 K, Liquid, x1 = 0.19	79.12
244.25 K, Liquid, x1 = 0.23	84.04
244.25 K, Liquid, x1 = 0.31	88.14
244.73 K, Liquid, x1 = 0.19	80.17
245.47 K, Liquid, x1 = 0.23	79.57
245.47 K, Liquid, x1 = 0.31	85.63
245.83 K, Liquid, x1 = 0.73	120.18
247.57 K, Liquid, x1 = 0.23	85.16
247.57 K, Liquid, x1 = 0.31	89.08
247.58 K, Liquid, x1 = 0.19	81.21
248.48 K, Liquid, x1 = 0.19	80.17
250.22 K, Liquid, x1 = 0.23	80.69
250.23 K, Liquid, x1 = 0.31	86.57
250.58 K, Liquid, x1 = 0.73	122.15
250.9 K, Liquid, x1 = 0.23	86.28
250.9 K, Liquid, x1 = 0.31	90.02
251.37 K, Liquid, x1 = 0.19	82.79
253.23 K, Liquid, x1 = 0.19	80.95
254.22 K, Liquid, x1 = 0.31	91.28
254.23 K, Liquid, x1 = 0.23	87.11
254.7 K, Liquid, x1 = 0.19	84.1
254.97 K, Liquid, x1 = 0.23	82.37
254.98 K, Liquid, x1 = 0.31	88.14
255.33 K, Liquid, x1 = 0.73	124.13
257.98 K, Liquid, x1 = 0.19	81.74
259.72 K, Liquid, x1 = 0.23	83.48
259.72 K, Liquid, x1 = 0.31	89.39
260.08 K, Liquid, x1 = 0.73	126.11
260.88 K, Liquid, x1 = 0.23	89.07
260.88 K, Liquid, x1 = 0.31	93.16
261.35 K, Liquid, x1 = 0.19	86.45
262.73 K, Liquid, x1 = 0.19	82.79
264.2 K, Liquid, x1 = 0.23	90.18
264.2 K, Liquid, x1 = 0.31	94.1
264.47 K, Liquid, x1 = 0.23	84.88
264.48 K, Liquid, x1 = 0.31	90.96
264.67 K, Liquid, x1 = 0.19	87.5
264.83 K, Liquid, x1 = 0.73	128.09
267.48 K, Liquid, x1 = 0.19	83.57
269.23 K, Liquid, x1 = 0.23	86.28
269.23 K, Liquid, x1 = 0.31	92.22
269.58 K, Liquid, x1 = 0.73	130.07
270.7 K, Liquid, x1 = 0.73	140.45
270.86 K, Liquid, x1 = 0.23	91.58
270.86 K, Liquid, x1 = 0.31	95.98
271.34 K, Liquid, x1 = 0.19	89.86
272.24 K, Liquid, x1 = 0.19	84.36
274.02 K, Liquid, x1 = 0.23	87.67
274.02 K, Liquid, x1 = 0.31	93.79
274.07 K, Liquid, x1 = 0.73	140.95
274.23 K, Liquid, x1 = 0.23	92.42
274.23 K, Liquid, x1 = 0.31	96.61
274.39 K, Liquid, x1 = 0.73	132.04
274.73 K, Liquid, x1 = 0.19	90.65
277.12 K, Liquid, x1 = 0.19	84.88
278.94 K, Liquid, x1 = 0.23	88.79
278.94 K, Liquid, x1 = 0.31	95.04
279.3 K, Liquid, x1 = 0.73	133.53
280.95 K, Liquid, x1 = 0.73	141.44
281.11 K, Liquid, x1 = 0.23	93.26
281.11 K, Liquid, x1 = 0.31	97.86
281.61 K, Liquid, x1 = 0.19	91.69
282.05 K, Liquid, x1 = 0.19	85.67
283.85 K, Liquid, x1 = 0.23	89.91
283.85 K, Liquid, x1 = 0.31	96.29
284.22 K, Liquid, x1 = 0.73	134.02
284.4 K, Liquid, x1 = 0.73	141.44
284.56 K, Liquid, x1 = 0.23	93.26
284.56 K, Liquid, x1 = 0.31	97.86
285.05 K, Liquid, x1 = 0.19	91.96
